Test results taken from US8221992B2, “Assays for determining compounds which modulate TRAM phosphorylation” (Opsona Therapeutics Limited, priority 2005, dated 2012).
“Also recorded” adds a separate entry of the source.

Tests used:
TRAM = test: Immunoblot of PKCε expressing MEF lysates with phospho-specific (Serine 16) TRAM antibody; type: cell-based; conditions: stimulation for 30 minutes (LPS 15 and 30 minutes)
Excerpt: Fabgennix (Texas, USA), using a synthetic peptide corresponding to amino acids 7 to 21 of TRAM (KIN SCP LSL SWG KRH) with a phosphoserine incorporated instead of the serine at amino acid 16, generated and purified a phospho-specific antibody towards TRAM phosphorylated on Serine 16. The validity of the antibody was confirmed when the band predicted to the phosphorylated TRAM was not present in samples taken from TRAM-deficient MEFs (data not shown).
The phosphorylation occurred earlier in this cell type than the THP1 cells as the effect was waning by 45 minutes (lane 11) and was not evident at 60 minutes (lane 12). Levels of total TRAM were not altered in the lysates over the time course (FIG. 4c, second panel). Importantly no band was detected in lysates generated from PKCε^−/− MEFs (FIG. 4c, top panel, lane 1-6) and no bands were detected in TRAM-deficient cells attesting to the specificity of the antibody (data not shown). Finally treatment of PKCε expressing MEFs with the TLR2 ligand MALP2 or the TLR3 ligand polyI:C for 30 minutes had no effect (FIG. 4d).

GST-TRAM = test: Kinase assay: GST-TRAM pulldown with THP1 lysates, [γ32P] ATP; type: biochemical; conditions: THP1 cells treated with the stimulus before lysis
Procedure: Kinase assay: THP1 cells were seeded at 2×10^5 cells/ml in a T175 flask (Sarstedt) and incubated overnight at 37° C. The following day 30 ml of cells were treated with and without LPS in 50 ml falcon tubes (Sarstedt) for 1 hour. The cells were collected by centrifugation, washed once in PBS and lysed in 1 ml buffer (10% glycerol (v/v), 50 mM NaF, 20 mM Tris-Cl pH 8.0, 2 mM EDTA, 137 mM NaCl, 1% NP-40, 1 mM PMSF, 10 μg/ml leupeptin, 1 mM Na3VO4) for 10 minutes. The cell debris was centrifuged for 10 min at 13,000 rpm and the supernatant was removed to a fresh tube for use in the kinase assay. 50 μl of the purified GST-TRAM on the Glutathione beads was placed in an eppendorf tube and the appropriate lysate was added to the tube and incubated for 2 hours at 4° C. The beads were spun down at 2,000 rpm for 5 min and then washed three times in kinase buffer (20 mM HEPES, pH 7.5, 10 mM MgAc, 0.03% Trition, 100 μg/ml phosphotidylserine, 20 mM β-glycerol phosphate, 0.01% (w/v) leupeptin and 100 μM Na3VO4). These beads were then resuspended in 30 μl kinase buffer containing 20 μM cold ATP and 5 μCi [γ^32P] […]
TRAM is phosphorylated upon LPS stimulation: TRAM is myristoylated, and in resting cells is located in the membrane (unpublished data). […] The samples were then run on a 10% SDS-PAGE gel, transferred onto nitrocellulose and the incorporated radioactivity was measured using X-ray film. […]

Substance	TRAM phosphorylation on serine 16 in PKCε expressing MEFs (TRAM)	phosphorylation of GST-TRAM by lysates of stimulated THP1 cells (GST-TRAM)
MALP2	had no effect	–
PolyI:C	had no effect	phosphorylation of TRAM does not occur; also recorded: This phosphorylation did not occur
